Patent US20100286284A1, “5-[1'-(DECAHYDRO-7-HYDROXY-1,1,3A,7-TETRAMETHYL-1H-CYCLOPROPA[A]NAPHTHALEN-4-YL)-3'-METHYLBUTYL]-2,4,6-TRIHYDROXY-1,3-BENZENEDICARBOXALDEHYDE AS MEDICAMENTS” (Pierre Fabre Medicament, priority 2008, published 2010)

Columns and labels:
Format in all cases: biochemical
Serotonin reuptake = test: Reuptake of serotonin (5-HT), [3H]-serotonin uptake in rat brain synapses; settings: in vitro, synapses from rats' brains, 15 min at 37° C.
Description: (§1) The uptake tests were carried out in vitro on rat synapses.
The basal activity is determined by incubating the same mixture for 15 min at 37° C. in the presence of 10 μM imipramine to block the reuptake.
(§2) Following incubation, the samples are rapidly filtered in vacuo through glass fibre filters (GB/B, Packard) and rinsed twice with ice-cold incubation buffer to eliminate free [^3H]-serotonin. The filters are dried and the radioactivity retained is measured by a scintillation counter (Topcount, Packard) using a scintillation cocktail (Microscint O, Packard).
(§3) The results are expressed as a percentage inhibition of the reuptake of the neurotransmitter evaluated.

Noradrenaline reuptake = test: Reuptake of noradrenaline (NE), [3H]-NE uptake in synapses of rat hypothalamus; settings: in vitro, 20 min at 37° C.
Description: as §1
The basal activity is determined by incubating the same mixture for 20 min at 37° C. in the presence of 10 μM of protriptyline to block the reuptake.
as §2, with “[^3H]-NE.” for “[^3H]-serotonin.”
as §3

Dopamine reuptake = test: Reuptake of dopamine (DA), [3H]-DA uptake in synapses of rat striatum; settings: in vitro, 15 min at 37° C.
Description: as §1
as §2, with “[^3H]-dopamine.” for “[^3H]-serotonin.”
as §3

| Compound | IC50 Serotonin reuptake (Serotonin reuptake) | IC50 Noradrenaline reuptake (Noradrenaline reuptake) | IC50 Dopamine reuptake (Dopamine reuptake) |
| --- | --- | --- | --- |
| CC(C)C[C@@H](c1c(O)c(C=O)c(O)c(C=O)c1O)[C@@H]1CC[C@@](C)(O)[C@@H]2[C@@H]3C(CC[C@]21C)C3(C)C (stereo partly drawn) [Macrocarpal L] | 1.8 μg/ml of solution | 3.1 μg/ml of solution | 1.0 μg/ml of solution |
| Hyperforin | 0.89 μg/ml of solution | 0.79 μg/ml of solution | 0.23 μg/ml of solution |
